Results published in ChEMBL document CHEMBL3112498, “Inhibition of protein kinase C α/βII and activation of c-Jun NH2-terminal kinase mediate glycyrrhetinic acid induced apoptosis in non-small cell lung cancer NCI-H460 cells” (Bioorg Med Chem Lett, 2014).
≈ marks a conversion by molar mass, not a printed value. Calls of active or inactive are those of the source. No cut-off for these calls is given here.

Assays:
A549 [1] = assay: Cytotoxicity against human A549 cells assessed as cell viability after 24 hrs by XTT assay; format: functional, cell-based; conditions: A549, 24 h
A549 [2] = assay: Cell cycle arrest in human A549 cells assessed as accumulation at sub-G1 phase at 50 uM after 1 hr by propidium iodide staining-based flow cytometric analysis; format: functional
NCI-H460 [3] = assay: Induction of apoptosis in human NCI-H460 cells assessed as PARP cleavage at 50 uM after 24 hrs by Western blot analysis in presence of PKC promoter PMA, JNK inhibitor SP600125; format: functional, cell-based
NCI-H460 [4] = assay: Induction of apoptosis in human NCI-H460 cells assessed as caspase-3 cleavage at 50 uM after 24 hrs by Western blot analysis in presence of PKC promoter PMA, JNK inhibitor SP600125; format: functional, cell-based
NCI-H460 [5] = assay: Induction of apoptosis in human NCI-H460 cells assessed as downregulation of Bcl-2 protein expression at 12.5 to 50 uM after 24 hrs by Western blot analysis; format: functional, cell-based
NCI-H460 [6] = assay: Induction of apoptosis in human NCI-H460 cells assessed as downregulation of cyclin D1 protein expression at 12.5 to 50 uM after 24 hrs by Western blot analysis; format: functional, cell-based
[7] = target: Protein kinase C delta type (Homo sapiens) (UniProt Q05655); assay: Induction of PKC-delta phosphorylation in human NCI-H460 cells at 12.5 to 50 uM after 24 hrs by Western blot analysis; format: cell-based
Protein kinase C delta type (Homo sapiens), sequence (Q05655 whole entry, looked up): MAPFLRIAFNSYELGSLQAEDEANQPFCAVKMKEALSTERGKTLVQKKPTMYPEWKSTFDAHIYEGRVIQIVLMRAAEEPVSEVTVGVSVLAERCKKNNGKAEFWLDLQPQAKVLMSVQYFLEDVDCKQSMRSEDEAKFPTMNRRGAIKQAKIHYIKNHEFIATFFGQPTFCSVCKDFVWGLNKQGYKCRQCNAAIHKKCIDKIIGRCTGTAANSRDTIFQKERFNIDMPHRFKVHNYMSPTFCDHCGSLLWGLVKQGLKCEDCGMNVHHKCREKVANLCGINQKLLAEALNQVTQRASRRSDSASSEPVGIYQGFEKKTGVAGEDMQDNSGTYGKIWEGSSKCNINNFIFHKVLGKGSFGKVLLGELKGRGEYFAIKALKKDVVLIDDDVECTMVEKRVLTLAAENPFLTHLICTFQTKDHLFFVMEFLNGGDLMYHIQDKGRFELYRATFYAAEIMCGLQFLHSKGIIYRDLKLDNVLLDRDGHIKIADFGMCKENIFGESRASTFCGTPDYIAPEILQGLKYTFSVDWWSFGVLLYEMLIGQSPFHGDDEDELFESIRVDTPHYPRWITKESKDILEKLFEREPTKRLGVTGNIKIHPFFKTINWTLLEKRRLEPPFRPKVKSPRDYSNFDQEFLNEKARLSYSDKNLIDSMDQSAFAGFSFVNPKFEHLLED

NCI-H460 [8] = assay: Inhibition of ERK phosphorylation in human NCI-H460 cells at 12.5 to 50 uM after 24 hrs by Western blot analysis; format: cell-based
NCI-H460 [9] = assay: Cell cycle arrest in human NCI-H460 cells assessed as accumulation at sub-G1 phase at 50 uM after 1 hr by propidium iodide staining-based flow cytometric analysis (reference value: 2.2%); format: functional
NCI-H460 [10] = assay: Cell cycle arrest in human NCI-H460 cells assessed as accumulation at sub-G1 phase at 12.5 uM after 1 hr by propidium iodide staining-based flow cytometric analysis (reference value: 2.2%); format: functional
[11] = target: T1, PKC alpha and beta-2 (Homo sapiens) (UniProt P17252+P05771); assay: Inhibition of PKC alpha/beta-2 phosphorylation in human NCI-H460 cells at 50 uM after 24 hrs by Western blot analysis in presence of PKC promoter PMA, JNK inhibitor SP600125; format: cell-based
T1 sequence (P05771 whole entry, looked up): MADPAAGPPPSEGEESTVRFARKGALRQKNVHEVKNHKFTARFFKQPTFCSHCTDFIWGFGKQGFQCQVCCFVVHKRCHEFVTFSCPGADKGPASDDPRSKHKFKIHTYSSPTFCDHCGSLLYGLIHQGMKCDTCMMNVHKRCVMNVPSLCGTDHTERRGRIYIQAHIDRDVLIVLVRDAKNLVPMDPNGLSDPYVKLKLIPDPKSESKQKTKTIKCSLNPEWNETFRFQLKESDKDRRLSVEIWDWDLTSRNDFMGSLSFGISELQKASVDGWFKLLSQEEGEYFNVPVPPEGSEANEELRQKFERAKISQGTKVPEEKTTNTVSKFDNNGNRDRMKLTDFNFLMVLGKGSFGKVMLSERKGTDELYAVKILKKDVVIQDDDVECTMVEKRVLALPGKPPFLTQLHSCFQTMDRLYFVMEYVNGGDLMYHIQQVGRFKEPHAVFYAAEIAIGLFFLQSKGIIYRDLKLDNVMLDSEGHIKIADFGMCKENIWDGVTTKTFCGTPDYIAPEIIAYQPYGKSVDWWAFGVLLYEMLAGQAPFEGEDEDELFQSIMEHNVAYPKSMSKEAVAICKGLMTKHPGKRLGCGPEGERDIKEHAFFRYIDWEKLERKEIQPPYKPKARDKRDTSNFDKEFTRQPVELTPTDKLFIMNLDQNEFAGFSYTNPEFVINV

[12] = target: c-Jun N-terminal kinase, JNK (Homo sapiens) (UniProt P45983+P53779+P45984); assay: Induction of c-Jun N-terminal kinase phosphorylation in human NCI-H460 cells at 12.5 to 50 uM after 24 hrs by Western blot analysis; format: cell-based
A549 [13] = assay: Induction of apoptosis in human A549 cells assessed as PARP cleavage at 12.5 to 50 uM after 24 hrs by Western blot analysis; format: functional, cell-based
NCI-H460 [14] = assay: Induction of apoptosis in human NCI-H460 cells assessed as activation of caspase 9/3 at 12.5 to 50 uM after 24 hrs by Western blot analysis; format: functional, cell-based
NCI-H460 [15] = assay: Induction of apoptosis in human NCI-H460 cells assessed as PARP cleavage at 12.5 to 50 uM after 24 hrs by Western blot analysis; format: functional, cell-based
NCI-H460 [16] = assay: Cell cycle arrest in human NCI-H460 cells assessed as accumulation at sub-G1 phase after 1 hr by propidium iodide staining-based flow cytometric analysis; format: functional
NCI-H460 [17] = assay: Cytotoxicity against human NCI-H460 cells assessed as cell viability after 24 hrs by XTT assay; format: functional, cell-based; conditions: NCI-H460, 24 h
NCI-H460 [18] = assay: Cell cycle arrest in human NCI-H460 cells assessed as accumulation at sub-G1 phase at 50 uM after 24 hrs by propidium iodide staining-based flow cytometric analysis in presence of PKC promoter PMA, JNK inhibitor SP600125; format: functional
NCI-H460 [19] = assay: Induction of apoptosis in human NCI-H460 cells assessed as downregulation of Bcl-xL protein expression at 12.5 to 50 uM after 24 hrs by Western blot analysis; format: functional, cell-based
NCI-H460 [20] = assay: Induction of apoptosis in human NCI-H460 cells assessed as downregulation of cyclin E protein expression at 12.5 to 50 uM after 24 hrs by Western blot analysis; format: functional, cell-based
[21] = target: T1, PKC alpha and beta-2 (Homo sapiens); assay: Inhibition of PKC alpha/beta-2 phosphorylation in human NCI-H460 cells at 12.5 to 50 uM after 24 hrs by Western blot analysis; format: cell-based
NCI-H460 [22] = assay: Induction of apoptosis in human NCI-H460 cells assessed as DNA fragmentation after 24 hrs by DAPI staining-based TUNEL assay; format: functional, cell-based

With `CC1(C)[C@@H](O)CC[C@]2(C)[C@H]3C(=O)C=C4[C@@H]5C[C@@](C)(C(=O)O)CC[C@]5(C)CC[C@@]4(C)[C@]3(C)CC[C@@H]12` [ENOXOLONE] the IC50 (A549 [1]) was 78 µg/mL (≈ 166 µM), the Activity (A549 [2]) was “Active” and the Activity (NCI-H460 [3]) was “inactive”. The Activity (NCI-H460 [4]) was “inactive”, the Activity (NCI-H460 [5]) was “Active” and the Activity (NCI-H460 [6]) was “Active”. The Activity [7] was “Active”, the inhibition (NCI-H460 [8]) was “Active” and the Activity (NCI-H460 [9]) was 40.1%. For the same compound, the Activity (NCI-H460 [10]) was 2.8%, the inhibition [11] was “inactive” and the Activity [12] was “Active”. The Activity (A549 [13]) was “Active”, the Activity (NCI-H460 [14]) was “Active” and the Activity (NCI-H460 [15]) was “Active”. For the same compound, the Activity (NCI-H460 [16]) was “Dose-dependent effect”, the IC50 (NCI-H460 [17]) was 62 µg/mL (≈ 132 µM) and the Activity (NCI-H460 [18]) was “inactive”. For the same compound, the Activity (NCI-H460 [19]) was “Active”, the Activity (NCI-H460 [20]) was “Active” and the inhibition [21] was “Active”. For the same compound, the Activity (NCI-H460 [22]) was “Dose-dependent effect”.
